Data reported in patent EP4772500A1, “NOVEL ISOXAZOLE COMPOUND AS TM4SF5-SPECIFIC INHIBITOR AND USE THEREOF” (Seoul National University R&DB Foundation, priority 2023, dated 2025).
Several values for one entry are separate records, joined by “and”; a condition that tells them apart may be missing. Equal entries are not always repeated.

Columns and labels:
[1] = system: TM4SF5-non-expressing cells (SNU449Cp); test: 2D cell growth/proliferation, TM4SF5-non-expressing cells; format: cell-based, human; conditions: 2D environment (FIG. 3a)
Experimental: The drugs treated were the positive control drug TSAHC or the ST-1-025 isoxazole compound at the given concentrations. From the time of starting culture (0 day), (FIG. 3a) in the case of 2D culture, the number of cells was measured after treating with the drug every 24 hours, or (FIG. 3b) in a 3D environment, the proliferation of cells (spheres) was observed and photographed with an optical microscope on the 5th and 7th days after a single drug treatment at the start of culture.

[2] = system: C57BL/6 mice on Methionine-Choline Deficient (MCD) diet; test: MCD diet non-alcoholic steatohepatitis (NASH) mouse model; format: in vivo
Excerpt: Wildtype (WT), Alb-TG^Tm4sf5-Flag, and Tm4sf5^-/- (Tm4sf5 gene-deficient) KO C57BL/6N mice were raised in a pathogen-free room animal facility where temperature and humidity were well controlled. For the experiment to establish the steatohepatitis NASH disease model, 22-week-old mice were used. For the induction of hepatic steatohepatitis through an MCD (TD.90262, Teklad) diet, 6-week-old male mice were randomly divided into normal chow diet (NCD, Purina, Cat # 38057) and MCD groups and allowed free access to the diet for 4 weeks (7 mice per group). When treating with drugs, intraperitoneal injection was performed at a concentration of 5 mg/kg twice a week. After the end of the experiment, liver tissues were obtained and analyzed through methods of H&E, immunohistochemistry tissue staining, Western blot, and qRT-PCR.
Normal 22-week-old C57BL/6 mice were randomly divided into a normal chow diet (NCD) group and a Methionine-Choline Deficient (MCD) diet group, which is a non-alcoholic steatohepatitis (NASH) induction diet, with 3 to 6 mice per group, and were allowed free access to the diets for 4 weeks. Simultaneously, vehicle (DMSO) or ST-2-001 at a concentration of 5 mg/kg was treated twice a week per animal via intraperitoneal injection (IP). After 4 weeks, liver tissues were obtained, and Masson's Trichrome staining showing the accumulation of collagen I (degree of fibrosis) and immunohistochemistry using antibodies against the given factors were performed. Representative images were obtained by randomly scanning the stained liver tissue sections using a digital slide scanner (MoticEasyScan, Motic, British Columbia, Canada). Additionally, tissue extracts were obtained from a portion of the liver tissues to perform Western blotting or qRT-PCR for the given factors, thereby confirming the mRNA and protein expression levels and phosphorylation degrees of signaling factors related to the induction of NASH-fibrosis symptoms and the regulation of T or NK cell activity. Meanwhile, in addition to the animal models, it was intended to confirm whether the expressions of TM4SF5, laminin γ2, and AFP correlate with each other at the hepatocyte level and are regulated by the TM4SF5-specific inhibitor isoxazole compound.

[3] = target: T1, HA-TM4SF5 obtained from Huh7KO-HA-TM4SF5 (Homo sapiens, UniProt O14894); test: Binding of 14C-labelled ST-5-002 to pulled-down HA-TM4SF5
T1 construct: expressed in transfected cells; host or cells: Huh7KO (TM4SF5 knockout Huh7) stably infected with pBabe-HA-TM4SF5 retrovirus; captured with anti-HA antibody
T1 sequence (O14894 1-197): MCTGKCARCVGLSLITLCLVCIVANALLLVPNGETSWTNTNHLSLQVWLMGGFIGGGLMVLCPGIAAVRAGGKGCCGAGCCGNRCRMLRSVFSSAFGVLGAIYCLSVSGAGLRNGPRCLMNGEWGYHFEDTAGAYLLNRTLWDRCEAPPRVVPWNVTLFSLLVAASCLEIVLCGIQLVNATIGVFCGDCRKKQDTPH
Experimental: For Huh7KO cells, stable cell lines were established by infecting with a retrovirus inducing the expression of pBabe-HA-EV or pBabe-HA-TM4SF5. Cell extracts were obtained, and extracts containing 0.2 or 0.25 mg of protein were reacted with an anti-HA antibody and HA-tagged TM4SF5, or with streptavidin agarose resin for Strep-PD-L1 or Strep-TM4SF5 at 4°C for 2 hours for pulldown. Subsequently, in the presence or absence of cold ST-5-002 (400 µM), the samples were treated with ^14C-labelled ST-5-002 (10 or 25 µM) and reacted at 4°C for 1 hour, after which radioactive isotope values were repeatedly measured using a TriCarb scintillation counter (PerkinElmer, Waltham, MA).
After culturing HEK293FT cells transfected with Strep-EV or Strep-TM4SF5 expression vectors, or Huh7KO cells stably expressing pBabe-HA-EV or pBabe-HA-TM4SF5, cell extracts were obtained. […] The pulled-down proteins were treated with ^14C-labelled ST-5-002 at various concentrations (10 nM, 100 nM, 1 µM, 5 µM, 10 µM, 50 µM) and reacted at 4°C for 1 hour, after which radioactive isotope values were repeatedly measured using a TriCarb scintillation counter (PerkinElmer, Waltham, MA). The EC50 was calculated by normalizing the average radioactive isotope value of TM4SF5 obtained through the measurements by dividing it by the average value of EV. […]

[4] = MCD diet, liver tissue extracts (FIG. 8c)

COc1ccc(-c2cc(-c3ccc(N)cc3)no2)cc1 [ST-1-025, 4-(5-(4-methoxyphenyl)isoxazole-3-yl)aniline]
growth or proliferation [1]: no significant difference

COc1ccc(-c2cc(-c3ccc(NC(C)=O)cc3)no2)cc1 [ST-2-001, N-(4-(5-(4-methoxyphenyl)isoxazole-3-yl)phenyl)acetamide]
NASH-fibrosis symptoms ([2]; MCD diet, 5 mg/kg IP twice a week, 4 weeks, tissue staining (FIG. 8a)): clearly inhibited
CPT1 (carnitine palmitoyltransferase 1) [2, 4]: rather increased
expressions and levels of fibrosis-related factors, factors related to lipogenesis and steatosis, and cytokines/chemokines related to inflammation [2, 4]: suppressed
α-Sma, Afp, and Pd-ll expression ([2]; MCD diet, liver tissue extracts, Western blotting (FIG. 8b)): decreased
mRNA levels for lipogenesis (Acc, Dgat2, Fasn) and activation of Kupffer cells (Trem2, Tim4, Clec4j) ([2]; MCD diet, liver tissues, qRT-PCR (FIG. 8d)): inhibited
effect on the liver tissue or the expression of the stained factors ([2]; NCD (normal chow diet), 5 mg/kg IP twice a week (FIG. 8a)): had no effect
expression of α-Sma, Afp, Pd-l1 ([2]; NCD, liver tissue extracts, Western blotting (FIG. 8b)): slightly decreased

Cc1ccc(C(=O)Nc2ccc(-c3cc(-c4ccc(O)cc4)no3)cc2)cc1 [ST-5-002, N-(4-(3-(4-hydroxyphenyl)isoxazole-5-yl)phenyl)-4-methylbenzamide]
EC50 ([3]; 14C-labelled ST-5-002, HA-TM4SF5, 4°C, 1 hour (FIG. 19b)): 850 nM and 875 nM
binding of 14C-labelled ST-5-002 to HA-TM4SF5 ([3]; simultaneous treatment with cold ST-5-002 (400 µM) (FIG. 19b)): decreased
